We go through 19 compounds from patent publication US10273238B2, “Indazolones as modulators of TNF signaling” (AbbVie Inc., priority 2015, dated 2019).

Chain of TNFα (P01375 77-233 limits assumed): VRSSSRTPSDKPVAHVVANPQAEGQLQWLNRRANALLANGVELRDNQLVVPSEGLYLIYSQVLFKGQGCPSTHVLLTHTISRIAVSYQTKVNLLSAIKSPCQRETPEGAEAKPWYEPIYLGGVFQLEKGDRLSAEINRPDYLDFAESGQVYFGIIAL

This test deals with TNFα (Homo sapiens, UniProt P01375). The experiment in a line: TNFα FP Competitive Binding Assay. The settings on record: 20 nM TNFα trimer, 1 nM OregonGreen488 probe, read-out: TNF IC50. As for the experimental part:
TNFα FP Competitive Binding Assay
Prepare 1× Assay Buffer (Water with 47 mil HEPES, 47 mM NaCl, 0.9 mM EDTA, 0.0071% Triton X-100) by adding 25 mL of 1 M HEPES, 5 mL of 5 M NaCl, 1 mL of 0.5 M EDTA, and 375 μL of a 10% Triton X-100 stock to a fresh 500 mL bottle of water.
Prepare fresh Assay Mixture containing 20 nM TNFα trimer (60 nM protein) and 1 nM 2′,7′-difluoro-3′,6′-dihydroxy-N-(2-(2-(2-((4-(isoquinolin-8-yl)-3-(4-(isoquinolin-8-yl)phenethoxy)benzyl)oxy)ethoxy)ethoxy)ethyl)-3-oxo-3H- spiro[isobenzofuran-1,9′-xanthene]-5-carboxamide probe in 1× Assay Buffer.
Top concentration of compounds, 10 mM in DMSO, dispensed in rows A-O in columns 1 and 13. Compounds are serially diluted 1:3 with DMSO in columns 2-12 or 14-24 using a 16-channel Matrix pipettor. Plates stored at −20° C.
Top concentration, 5 mM in DMSO, of compounds placed in rows A-O in columns 1 and 13.
Compounds are serially diluted 1:3 with DMSO in columns 2-12 or 14-24. Compound solutions are dispensed into replicate assay plates at 410 nL per well. Plates stored at 4° C.
TNFα FP Competitive Binding Assay Protocol • 1. Compound plates warmed to rt. • 2. Fresh Assay Mixture is prepared. • 3. Assay Mixture (20 μL) is dispensed each well of 384 assay plates using a Thermo Multidrop Combi or 16-channel Matrix pipettor. If Manual 12-point 1:3 Dilution Plates are to be tested, Assay Mix is dispensed into empty plates. Discovery Preps 12-point 1:3 Dilution Plates already contain 410 nL compound solution in DMSO. • 4. For Manual 12-point 1:3 Dilution Plates, 0.7 μL is manually transferred using a 16-channel Matrix pipettor to replicate assay plates containing 20 μL Assay Mixture for a final top compound concentration of […] (3.4% DMSO). • 5. For Discovery Preps 12-point 1:3 Dilution Plates, 20 μL Assay Mixture added the 410 nL compound solution already in the plates yields a final top compound concentration of 100 μM (2.0% DMSO). • 6. Background subtraction controls are wells P1-P8 containing only Assay Buffer. The low % inhibition controls are wells P9-P16 containing only Assay Mix. The high % inhibition are wells P17-P24 containing only 1 nM 2′,7′-difluoro-3′,6′-dihydroxy-N-(2-(2-(2-((4-(isoquinolin-8-yl)-3-(4-(isoquinolin-8-yl)phenethoxy)benzyl)oxy)ethoxy)ethoxy)ethyl)-3-oxo-3H-spiro[isobenzofuran-1,9′-xanthene]-5-carboxamide probe in 1× Assay Buffer. • 7. Plates are incubated at rt for 18-24 h in […] (CO2 is off). • 8. Prior to reading the assay, the plates are placed in a dark cabinet to equilibrate at rt for one hour. • 9. Background-subtracted fluorescence polarization (mP) is measured using a PerkinElmer Envision plate reader. • 10. Raw data is entered into Assay Explorer and dose-response curves are generated using a variable slope curve.
For the compound `O=c1c2ccc(-c3cnc(N4CCC5(CC4)CC(O)C5)nc3)cc2n2n1CC[C@H]2c1ccccc1OC(F)F` (single isomer, unassigned) [Example 4.8], the IC50 is under 1000 nM.

Turning to `O=c1c2ccc(-c3cnc(N4CCOCC4)nc3)cc2n2n1CC[C@@H]2c1ccccc1OC(F)F` (single isomer, unassigned) [Example 1.1], the IC50 was under 1000 nM.

Consider `O=c1c2ccc(-c3cnc(N4CCOCC4)nc3)cc2n2n1CCC2c1ccccc1OC(F)F` (stereo not shown) [Example 1, 3-(2-(Difluoromethoxy)phenyl)-6-(2-morpholinopyrimidin-5-yl)-2,3-dihydropyrazolo[1,2-a]indazol-9(1H)-one], for which the IC50 is under 1000 nM.

As to `Cc1nc(C(C)(C)O)ncc1-c1ccc2c(=O)n3n(c2c1)[C@@H](c1ccccc1OC(F)F)CC3` [Example 6.6], the IC50 is under 1000 nM.

As for `O=C1C[C@@H](CNc2ncc(-c3ccc4c(=O)n5n(c4c3)[C@H](c3ccccc3OC(F)F)CC5)cn2)CN1` (single isomer, unassigned) [Example 4.4], the IC50 was under 1000 nM.

On to `O=C1C[C@@H](CNc2ncc(-c3ccc4c(=O)n5n(c4c3)[C@@H](c3ccccc3OC(F)F)CC5)cn2)CN1` (single isomer, unassigned) [Example 4.3], for which the IC50 lay in the range of 1000 to 10000 nM.

For `Cc1cccc(C2CCn3c(=O)c4ccc(-c5cnc(N6CCOCC6)nc5)cc4n32)c1C#N` (stereo not shown) [Example 8.1, 2-methyl-6-(6-(2-morpholinopyrimidin-5-yl)-9-oxo-1,2,3,9-tetrahydropyrazolo[1,2-a]indazol-3-yl)benzonitrile], the IC50 lay in the range of 1000 to 10000 nM.

`CC(C)(O)c1ncc(-c2ccc3c(=O)n4n(c3c2)[C@H](c2ccccc2OC(F)F)CC4)cn1` (single isomer, unassigned) [Example 4.1]: the IC50 is 1000 to 10000 nM.

As to `O=C1NC[C@@H]2CN(c3ncc(-c4ccc5c(c4)[C@H]4[C@@H](c6ccccc6OC(F)F)CCN4C5=O)cn3)CCN12` (single isomer, unassigned) [Example 11.1], the IC50 was under 1000 nM.

Regarding `O=C1NC[C@H]2CN(c3ncc(-c4ccc5c(=O)n6n(c5c4)[C@@H](c4ccccc4OC(F)F)CC6)cn3)CCN12` (single isomer, unassigned) [Example 6.1], the IC50 is under 1000 nM.

As for `O=C1C[C@H](CNc2ncc(-c3ccc4c(=O)n5n(c4c3)[C@@H](c3ccccc3OC(F)F)CC5)cn2)CN1` (single isomer, unassigned) [Example 4.5], the IC50 was in the range of 1000 to 10000 nM.

Take `COc1c(C#N)cccc1C1CCn2c(=O)c3ccc(-c4cnc(N5CCOCC5)nc4)cc3n21` (stereo not shown) [Example 8.4, 2-methoxy-3-(6-(2-morpholinopyrimidin-5-yl)-9-oxo-1,2,3,9-tetrahydropyrazolo[1,2-a]indazol-3-yl)benzonitrile]: the IC50 was 1000 to 10000 nM.

`COC[C@H]1CCCN1c1ncc(-c2ccc3c(=O)n4n(c3c2)[C@@H](c2ccccc2OC(F)F)CC4)cn1` (single isomer, unassigned) [Example 1.5]: the IC50 is 1000 to 10000 nM.

As for `O=C1NC[C@H]2CN(c3ncc(-c4ccc5c(=O)n6n(c5c4)[C@H](c4ccccc4OC(F)F)CC6)cn3)CCN12` (single isomer, unassigned) [Example 5.1], the IC50 was under 1000 nM.

On to `O=c1c2ccc(-c3cnc(N4CCO[C@H](CO)C4)nc3)cc2n2n1CC[C@H]2c1ccccc1OC(F)F` (single isomer, unassigned) [Example 2.1], for which the IC50 was under 1000 nM.

Take `COc1ccc(C#N)cc1C1CCn2c(=O)c3ccc(-c4cnc(N5CCOCC5)nc4)cc3n21` (stereo not shown) [Example 8.3, 4-methoxy-3-(6-(2-morpholinopyrimidin-5-yl)-9-oxo-1,2,3,9-tetrahydropyrazolo[1,2-a]indazol-3-yl)benzonitrile]: the IC50 is 1000 to 10000 nM.

Turning to `CC(C)(O)c1ncc(-c2ccc3c(c2)[C@@H]2[C@H](c4ccccc4OC(F)F)CCN2C3=O)cn1` (single isomer, unassigned) [Example 10.1], the IC50 was over 10000 nM.

As for `O=c1c2ccc(-c3cnc(N[C@@H]4CCOC4)nc3)cc2n2n1CC[C@@H]2c1ccccc1OC(F)F` (single isomer, unassigned) [Example 1.6], the IC50 lay within 1000 to 10000 nM.

As to `CC(=O)N1CCN(c2ncc(-c3ccc4c(=O)n5n(c4c3)[C@@H](c3ccccc3OC(F)F)CC5)cn2)[C@H](C)C1` [Example 6.5, (R)-6-(2-((R)-4-acetyl-2-methylpiperazin-1-yl)pyrimidin-5-yl)-3-(2-(difluoromethoxy)phenyl)-2,3-dihydropyrazolo[1,2-a]indazol-9(1H)-one], the IC50 is under 1000 nM.

The IC50 is the concentration needed to halve the response being measured.
